# Patent US9918966B2, “Anti-cancer compositions and methods” (The Penn State Research Foundation, priority 2013, dated 2018)
# Like-named read-outs stand apart in the source and are kept apart here.
# Experiments:
# [1] = for Mortality at Day 7: 3 mice/group
# Description: Number of mice surviving and changes in body weight after 7 days of drug treatment is scored (Table I).
# 1205 Lu melanoma cells = experiment: Western blot analysis; assay type: cell-based, human; conditions: 2.5-50 μmol/L for 48 h
# Description: (§1) Cell lysates are harvested and processed as described in Sharma A et al., Cancer Res 2006, 66:8200-9. […] Protein lysates are collected for Western blotting. Blots are probed with total and phospho-Akt (Ser473), phospho-PRAS40 (Thr246), phospho-Erk1/2 (Thr202/Tyr204), total and Phospho-Mek1/2 (Ser217) and cleaved PARP from Cell Signaling Technology (Danvers, Mass.). Total PRAS40 from Invitrogen (Carlsbad, Calif.). Total Erk, cyclin D1, p27, Alpha-enolase and secondary antibodies conjugated with horseradish peroxidase from Santa Cruz Biotechnology (Santa Cruz Biotechnology, Santa Cruz, Calif.). COX-1 and COX-2 antibodies were obtained from Cayman Chemical Company, Ann Arbor, Mich. Immunoblots are developed using the enhanced chemiluminescence detection system (Amersham Pharmacia Biotech, Piscataway, N.J.).
# UACC 903 melanoma cells = experiment: Western blot analysis; assay type: cell-based, human; conditions: UACC 903, 2.5-50 μmol/L for 48 h
# Description: as §1
# [2] = tested on: FF2441 human fibroblast cells; experiment: Cell viability, MTS assay; assay type: cell-based
# Description: (§2) Cell viability, proliferation, apoptosis and cell cycle analysis: Viability and IC50 (μmol/L) of normal human melanocytes, fibroblast and melanoma cells following treatment with inhibitors are measured using the MTS assay (Promega, Madison, Wis.) described in Sharma A, et al., Clin Cancer Res 2009; 15:1674-85; and Madhunapantula S V, et al., Mol Cancer Ther 2008; 7:1297-308. […] IC50 values for each inhibitor in μmol/L for respective cell lines are measured from three independent experiments using GraphPad Prism version 4.01 (GraphPad Software, La Jolla, Calif.).
# (§3) The number of viable cells is measured using MTS and percentage decrease in viability calculated. IC50 values for each inhibitor in μmol/L for respective cell lines are measured from three independent experiments using GraphPad Prism version 4.01 (GraphPad Software, La Jolla, Calif.).
# [3] = tested on: FOM103 normal human melanocytes; experiment: Cell viability, MTS assay; assay type: cell-based; conditions: Melanocyte
# Description: as §2, §3
# [4] = tested on: WM115 vertical growth phase melanoma cells; experiment: Cell viability, MTS assay; assay type: cell-based; conditions: Homo sapiens, WM-115
# Description: as §2, §3
# [5] = tested on: WM35 radial growth phase melanoma cells; experiment: Cell viability, MTS assay; assay type: cell-based; conditions: Homo sapiens
# Description: as §2, §3
# [6] = tested on: 1205 Lu metastatic melanoma cells; experiment: cells; conditions: Homo sapiens
# Description: as §2, §3
# [7] = tested on: UACC 903 metastatic melanoma cells; experiment: cells; conditions: Homo sapiens
# Description: as §2, §3
# Caco-2 (Colon) = experiment: IC50 for killing cancer cells; assay type: cell-based; conditions: Homo sapiens
# Description: (§4) Therapeutic universality of selenocoxib-1-GSH for killing cancer cells is examined by treating pancreatic (MiaPaca-2), breast (MDA-MB-231), prostate (PC-3) or sarcoma (HT-1080) and colon (Caco2) cell. lines with the drug and establishing the IC50 for each cell line, Table III. Selenocoxib-1-GSH kills the various cancer cell lines at 2-3-fold lower concentrations than normal fibroblast cells.
# HT-1080 (Fibro sarcoma) = experiment: IC50 for killing cancer cells; assay type: cell-based; conditions: Homo sapiens
# Description: as §4
# MDA-MB-231 (Breast) = experiment: IC50 for killing cancer cells; assay type: cell-based; conditions: Homo sapiens
# Description: as §4
# MiaPaca-2 (Pancreas) = experiment: IC50 for killing cancer cells; assay type: cell-based; conditions: Homo sapiens, MIA PaCa-2
# Description: as §4
# PC-3 (Prostate) = experiment: IC50 for killing cancer cells; assay type: cell-based; conditions: Homo sapiens
# Description: as §4
# [8] = 0.032 μmoles (2.5 PPM) intraperitoneally daily for seven days
compound,measurement,setting,value
Selenocoxib-1,% of weight loss,[1]; [8],14.07%
same,Mortality at Day 7,[1]; [8],0/3
same,% of weight loss,"[1]; 0.032 μmoles (2.5 PPM) intraperitoneally daily for seven days, listed as selenocoxib-1",14%
same,Mortality at Day 7,[1]; 0.064 μmoles (5.0 PPM) intraperitoneally daily for seven days,3/3
same,animal mortality,"[1]; concentrations of 0.032-0.064, after seven days of treatment",100%
"N#CC(=C(/N)Sc1ccccc1N)/C(C#N)=C(\N)Sc1ccccc1N [U0126, reference compound]",COX-1 expression,1205 Lu melanoma cells,without affecting COX-1
same,COX-2 expression,1205 Lu melanoma cells,reduces the expression of COX-2
same,Levels of pErk1/2,1205 Lu melanoma cells,similarly decrease
same,COX-1 expression,UACC 903 melanoma cells,without affecting COX-1
same,COX-2 expression,UACC 903 melanoma cells,reduces the expression of COX-2
same,Levels of pErk1/2,UACC 903 melanoma cells,similarly decrease
"Cc1ccc(-c2cc(C(F)(F)F)nn2-c2ccc(S(N)(=O)=O)cc2)cc1 [Celecoxib, reference compound]",IC50,"[2]; FF2441, 24 h",> 100 µM
same,IC50,"[2]; FF2441, 48 h",> 100 µM
same,IC50,"[2]; FF2441, 72 h",65.3 ± 3.3 µM
same,IC50,"[3]; FOM103, 24 h",> 100 µM
same,IC50,"[3]; FOM103, 48 h",> 100 µM
same,IC50,"[3]; FOM103, 72 h",68 ± 1.2 µM
same,IC50,"[4]; WM115, 24 h",54.4 ± 3.6 µM
same,IC50,"[4]; WM115, 48 h",45.3 ± 2.7 µM
same,IC50,"[4]; WM115, 72 h",41.8 ± 2.9 µM
same,IC50,"[5]; WM35, 24 h",51.3 ± 2.3 µM
same,IC50,"[5]; WM35, 48 h",42.3 ± 1.8 µM
same,IC50,"[5]; WM35, 72 h",37.9 ± 3.3 µM
same,IC50,[6]; 24 h,> 100 µM
same,IC50,[6]; 48 h,83.6 ± 3.3 µM
same,IC50,[6]; 72 h,66.1 ± 3.2 µM
same,IC50,"[7]; UACC-903, 24 h",> 100 µM
same,IC50,"[7]; UACC-903, 48 h",> 100 µM
same,IC50,"[7]; UACC-903, 72 h",76.6 ± 4.4 µM
same,IC50,Caco-2 (Colon),> 100 µM
same,IC50,HT-1080 (Fibro sarcoma),> 100 µM
same,IC50,MDA-MB-231 (Breast),> 100 µM
same,IC50,MiaPaca-2 (Pancreas),> 100 µM
same,IC50,PC-3 (Prostate),> 100 µM
